Assay results reported in US5457104A, “Quinolone- and naphthyridonecarboxylic acid derivatives” (Bayer Aktiengesellschaft, priority 1993, dated 1995).
≈ marks a conversion by molar mass, not a printed value.

Columns and labels:
Test in all cases: MIC, serial dilution test on Iso-sensitest agar
Type in all cases: cell-based
[1] = system: Providencia sp. 12052; details: 37° C., approx. 20 hours, approx. 10^4 CFU per inoculation point
Protocol: (§1) The minimum inhibitory concentrations (MIC) were determined by the serial dilution test on Iso-sensitest agar (Oxoid). For each test substance, a series of agar plates was prepared which contained concentrations of the active substance which decreased at a rate of in each case twice the dilution factor. The agar plates were inoculated using a multipoint inoculator (Denley). For inoculation, overnight cultures of the pathogens were used which had previously been diluted in such a manner that each inoculation point contained approximately 10^4 colony-forming units. The inoculated agar plates were incubated at 37° C., and the microbial growth was observed after approx. 20 hours. The MIC value (μg/ml) indicates the lowest active compound concentration at which no growth could be detected by the naked eye.

[2] = system: Staphylococcus aureus ICB 25701; details: ICB25701, 37° C., approx. 20 hours, approx. 10^4 CFU per inoculation point
Protocol: as §1

[3] = system: E. coli Neumann; details: Escherichia coli, 37° C., approx. 20 hours, approx. 10^4 CFU per inoculation point
Protocol: as §1

[4] = system: Enterococcus faecalis 27101; details: 37° C., approx. 20 hours, approx. 10^4 CFU per inoculation point
Protocol: as §1

[5] = system: Enterococcus faecalis 9790; details: 37° C., approx. 20 hours, approx. 10^4 CFU per inoculation point
Protocol: as §1

[6] = system: Mirococcus luteus 9341; details: 37° C., approx. 20 hours, approx. 10^4 CFU per inoculation point
Protocol: as §1

[7] = system: E. coli 455/7; details: Escherichia coli, 37° C., approx. 20 hours, approx. 10^4 CFU per inoculation point
Protocol: as §1

[8] = system: Staphylococcus aureus 25768; details: 37° C., approx. 20 hours, approx. 10^4 CFU per inoculation point
Protocol: as §1

[9] = system: Klebsiella pneumoniae 63; details: 37° C., approx. 20 hours, approx. 10^4 CFU per inoculation point
Protocol: as §1

[10] = system: Providencia sp. 12012; details: 37° C., approx. 20 hours, approx. 10^4 CFU per inoculation point
Protocol: as §1

[11] = system: Staphylococcus aureus 133; details: 37° C., approx. 20 hours, approx. 10^4 CFU per inoculation point
Protocol: as §1

[12] = system: Acinetobacter caloaceticus 14068; details: 37° C., approx. 20 hours, approx. 10^4 CFU per inoculation point
Protocol: as §1

[13] = system: Klebsiella pneumoniae 8085; details: 37° C., approx. 20 hours, approx. 10^4 CFU per inoculation point
Protocol: as §1

[14] = system: Staphylococcus aureus 1756; details: 37° C., approx. 20 hours, approx. 10^4 CFU per inoculation point
Protocol: as §1

NC1C=CCC2CN(c3ccc4c(=O)c(C(=O)O)cn(C5CC5)c4c3Cl)CC12 (stereo not shown) [Example 7]
MIC [1]: 1 µg/mL (≈ 2.5 µM) | MIC [2]: 0.06 µg/mL (≈ 0.15 µM) | MIC [3]: 0.0078 µg/mL (≈ 0.0195 µM) | MIC [4]: 0.015 µg/mL (≈ 0.0375 µM) | MIC [5]: 0.03 µg/mL (≈ 0.075 µM) | MIC [6]: 0.03 µg/mL (≈ 0.075 µM) | MIC [7]: 0.5 µg/mL (≈ 1.25 µM) | MIC [8]: 2 µg/mL (≈ 5 µM) | MIC [9]: 0.015 µg/mL (≈ 0.0375 µM) | MIC [10]: 0.015 µg/mL (≈ 0.0375 µM) | MIC [11]: 0.0039 µg/mL (≈ 0.00975 µM) | MIC [12]: 0.015 µg/mL (≈ 0.0375 µM) | MIC [13]: 0.015 µg/mL (≈ 0.0375 µM) | MIC [14]: 0.0039 µg/mL (≈ 0.00975 µM)

CC1C=CC(N)C2CN(c3ccc4c(=O)c(C(=O)O)cn(C5CC5)c4c3Cl)CC12 (stereo not shown) [Example 8]
MIC [1]: 1 µg/mL (≈ 2.42 µM) | MIC [2]: 0.06 µg/mL (≈ 0.145 µM) | MIC [3]: 0.015 µg/mL (≈ 0.0362 µM) | MIC [4]: 0.06 µg/mL (≈ 0.145 µM) | MIC [5]: 0.06 µg/mL (≈ 0.145 µM) | MIC [6]: 0.06 µg/mL (≈ 0.145 µM) | MIC [7]: 0.5 µg/mL (≈ 1.21 µM) | MIC [8]: 2 µg/mL (≈ 4.83 µM) | MIC [9]: 0.03 µg/mL (≈ 0.0725 µM) | MIC [10]: 0.06 µg/mL (≈ 0.145 µM) | MIC [11]: 0.0078 µg/mL (≈ 0.0188 µM) | MIC [12]: 0.03 µg/mL (≈ 0.0725 µM) | MIC [13]: 0.03 µg/mL (≈ 0.0725 µM) | MIC [14]: 0.0078 µg/mL (≈ 0.0188 µM)

NC1C=CCC2CN(c3ccc4c(=O)c(C(=O)O)cn(C5CC5)c4c3F)CC12 (stereo not shown) [Example 20]
MIC [1]: 1 µg/mL (≈ 2.61 µM) | MIC [2]: 0.25 µg/mL (≈ 0.652 µM) | MIC [3]: 0.03 µg/mL (≈ 0.0782 µM) | MIC [4]: 0.06 µg/mL (≈ 0.156 µM) | MIC [5]: 0.06 µg/mL (≈ 0.156 µM) | MIC [6]: 0.06 µg/mL (≈ 0.156 µM) | MIC [7]: 1 µg/mL (≈ 2.61 µM) | MIC [8]: 4 µg/mL (≈ 10.4 µM) | MIC [9]: 0.03 µg/mL (≈ 0.0782 µM) | MIC [10]: 0.06 µg/mL (≈ 0.156 µM) | MIC [11]: 0.03 µg/mL (≈ 0.0782 µM) | MIC [12]: 0.06 µg/mL (≈ 0.156 µM) | MIC [13]: 0.03 µg/mL (≈ 0.0782 µM) | MIC [14]: 0.015 µg/mL (≈ 0.0391 µM)

CC1C=CC(N)C2CN(c3ccc4c(=O)c(C(=O)O)cn(C5CC5)c4c3F)CC12 (stereo not shown) [Example 21]
MIC [1]: 1 µg/mL (≈ 2.52 µM) | MIC [2]: 0.25 µg/mL (≈ 0.629 µM) | MIC [3]: 0.015 µg/mL (≈ 0.0377 µM) | MIC [4]: 0.06 µg/mL (≈ 0.151 µM) | MIC [5]: 0.06 µg/mL (≈ 0.151 µM) | MIC [6]: 0.125 µg/mL (≈ 0.315 µM) | MIC [7]: 0.5 µg/mL (≈ 1.26 µM) | MIC [8]: 2 µg/mL (≈ 5.03 µM) | MIC [9]: 0.3 µg/mL (≈ 0.755 µM) | MIC [10]: 0.06 µg/mL (≈ 0.151 µM) | MIC [11]: 0.015 µg/mL (≈ 0.0377 µM) | MIC [12]: 0.03 µg/mL (≈ 0.0755 µM) | MIC [13]: 0.3 µg/mL (≈ 0.755 µM) | MIC [14]: 0.015 µg/mL (≈ 0.0377 µM)

NC1CCN(c2ccc3c(=O)c(C(=O)O)cn(C4CC4)c3c2F)C1 (stereo not shown) [Reference, 7-(3-aminopyrrolidin-1-yl)-1-cyclopropyl-8-fluoro-1,4-dihydro-4-oxo-3-quinolinecarboxylic acid, reference compound]
MIC [1]: 2 µg/mL (≈ 6.04 µM) | MIC [2]: 4 µg/mL (≈ 12.1 µM) | MIC [3]: 0.031 µg/mL (≈ 0.0936 µM) | MIC [4]: 0.25 µg/mL (≈ 0.754 µM) | MIC [5]: 0.25 µg/mL (≈ 0.754 µM) | MIC [6]: 0.5 µg/mL (≈ 1.51 µM) | MIC [7]: 1 µg/mL (≈ 3.02 µM) | MIC [8]: 16 µg/mL (≈ 48.3 µM) | MIC [9]: 0.062 µg/mL (≈ 0.187 µM) | MIC [10]: 0.06 µg/mL (≈ 0.181 µM) | MIC [11]: 0.125 µg/mL (≈ 0.377 µM) | MIC [12]: 0.25 µg/mL (≈ 0.754 µM) | MIC [13]: 0.062 µg/mL (≈ 0.187 µM) | MIC [14]: 0.125 µg/mL (≈ 0.377 µM)
